Measurements as given in PubChem BioAssay AID248 (DTP/NCI, 2004).
Inconclusive results and toxic doses are left out. Cut-off read from the data, not from the text of the source: active = T/C of 150% or more; inactive = T/C below 125%.

System: L1210 leukemia ip in BDF1 mice, survival T/C
Assay: NCI In Vivo Anticancer Drug Screen. Data for tumor model L1210 Leukemia (intraperitoneal) in B6D2F1 (BDF1) mice
Conditions: endpoint: mean survival time, higher = longer survival
Summary of the method: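 Tumor was transplanted into mice, which were then dosed with test compound or vehicle alone. Survival was recorded for each group, and the treated figure was expressed relative to the control figure.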

[1] = dose: 100.0 mg/kg/injection, schedule: Q04DX002 (ip), vehicle: Klucel (hydroxypropylcellulose) (HPC)
[2] = dose: 100.0 mg/kg/injection, schedule: Q01DX009 (ip), vehicle: Klucel (hydroxypropylcellulose) (HPC)
[3] = dose: 100.0 mg/kg/injection, schedule: Q04DX003 (ip), vehicle: Klucel (hydroxypropylcellulose) (HPC)
[4] = dose: 200.0 mg/kg/injection, schedule: Q01DX009 (ip), vehicle: Klucel (hydroxypropylcellulose) (HPC)
[5] = dose: 200.0 mg/kg/injection, schedule: Q04DX003 (ip), vehicle: Klucel (hydroxypropylcellulose) (HPC)
[6] = dose: 400.0 mg/kg/injection, schedule: Q01DX009 (ip), vehicle: Klucel (hydroxypropylcellulose) (HPC)
[7] = dose: 400.0 mg/kg/injection, schedule: Q04DX003 (ip), vehicle: Klucel (hydroxypropylcellulose) (HPC)
[8] = dose: 50.0 mg/kg/injection, schedule: Q01DX001 (ip), vehicle: carboxymethylcellulose (CMC)
[9] = dose: 100.0 mg/kg/injection, schedule: Q01DX001 (ip), vehicle: carboxymethylcellulose (CMC)
[10] = dose: 200.0 mg/kg/injection, schedule: Q01DX001 (ip), vehicle: carboxymethylcellulose (CMC)
[11] = dose: 400.0 mg/kg/injection, schedule: Q01DX001 (ip), vehicle: carboxymethylcellulose (CMC)
[12] = dose: 30.0 mg/kg/injection, schedule: Q01DX001 (ip), vehicle: carboxymethylcellulose (CMC)
[13] = dose: 100.0 mg/kg/injection, schedule: Q01DX001 (ip), vehicle: saline
[14] = dose: 200.0 mg/kg/injection, schedule: Q01DX001 (ip), vehicle: saline
[15] = dose: 400.0 mg/kg/injection, schedule: Q01DX001 (ip), vehicle: saline
[16] = dose: 200.0 mg/kg/injection, schedule: Q04DX002 (ip), vehicle: Klucel (hydroxypropylcellulose) (HPC)
[17] = dose: 400.0 mg/kg/injection, schedule: Q04DX002 (ip), vehicle: Klucel (hydroxypropylcellulose) (HPC)
[18] = dose: 100.0 mg/kg/injection, schedule: Q04DX003 (ip), vehicle: saline with Tween-80
[19] = dose: 200.0 mg/kg/injection, schedule: Q04DX003 (ip), vehicle: saline with Tween-80
[20] = dose: 400.0 mg/kg/injection, schedule: Q04DX003 (ip), vehicle: saline with Tween-80

Measured: T/C

COc1ccc(O)c(CC(C)C)c1
inactive: dose: 100.0 mg/kg/injection, schedule: Q04DX003 (ip), vehicle: acetone 96 % of control | dose: 200.0 mg/kg/injection, schedule: Q04DX003 (ip), vehicle: acetone 102 % of control | dose: 400.0 mg/kg/injection, schedule: Q04DX003 (ip), vehicle: acetone 93 % of control

Cc1ccc(S(=O)(=O)OC2C(C3CSC(=O)O3)OC3OC(C)(C)OC32)cc1 (stereo not given)
inactive: dose: 25.0 mg/kg/injection, schedule: Q04DX002 (ip), vehicle: Klucel (hydroxypropylcellulose) (HPC) 103 % of control | dose: 50.0 mg/kg/injection, schedule: Q04DX002 (ip), vehicle: Klucel (hydroxypropylcellulose) (HPC) 100 % of control | [1] 97 % of control

Cc1ccc(S(=O)(=O)N(C)c2ccc3cc(C(=O)O)ccc3c2)cc1
inactive: [2] 94 % of control | [3] 102 % of control | [4] 95 % of control | [5] 106 % of control | [6] 94 % of control | [7] 90 % of control

C=CCc1c(C)cc(C)c(C)c1O
inactive: dose: 50.0 mg/kg/injection, schedule: Q01DX009 (sc), vehicle: olive oil, sesame oil, peanut oil 105 % of control | dose: 50.0 mg/kg/injection, schedule: Q04DX003 (sc), vehicle: olive oil, sesame oil, peanut oil 113 % of control | dose: 100.0 mg/kg/injection, schedule: Q01DX009 (sc), vehicle: olive oil, sesame oil, peanut oil 105 % of control | dose: 100.0 mg/kg/injection, schedule: Q04DX003 (sc), vehicle: olive oil, sesame oil, peanut oil 106 % of control | dose: 200.0 mg/kg/injection, schedule: Q01DX009 (sc), vehicle: olive oil, sesame oil, peanut oil 104 % of control | dose: 200.0 mg/kg/injection, schedule: Q04DX003 (sc), vehicle: olive oil, sesame oil, peanut oil 101 % of control

COC1OC(COC(=S)SCc2ccccc2)C(O)C(O)C1O (stereo not given)
inactive: dose: 50.0 mg/kg/injection, schedule: Q04DX002 (ip), vehicle: saline 113 % of control | dose: 100.0 mg/kg/injection, schedule: Q04DX002 (ip), vehicle: saline 110 % of control | dose: 200.0 mg/kg/injection, schedule: Q04DX002 (ip), vehicle: saline 92 % of control

Cc1nc2c(c(=O)[nH]1)OCN(Cc1ccccc1)C2
inactive: [8] 96 % of control | [9] 98 % of control | [10] 98 % of control | [11] 98 % of control

O=C1CCCSc2ccccc21
inactive: [2] 106 % of control | [3] 108 % of control | [4] 104 % of control | [5] 106 % of control | [6] 106 % of control | [7] 101 % of control

CC1(C)C2CC3C(=CCC4C(=O)OC(=O)C43)C1C2 (stereo not given)
inactive: [2] 104 % of control | [3] 101 % of control | [4] 100 % of control | [5] 100 % of control | [7] 100 % of control

CN1C(=O)NC(C)(CCOCc2ccccc2)C1=O (stereo not given)
inactive: [8] 96 % of control | [9] 107 % of control | [10] 100 % of control | [11] 100 % of control

CCOC(=O)C[P+](c1ccc(OC)cc1)(c1ccc(OC)cc1)c1ccc(OC)cc1
inactive: [12] 90 % of control

CN(C)c1ccc(C=Nc2ccc(Cl)cc2)cc1
inactive: dose: 100.0 mg/kg/injection, schedule: Q01DX001 (ip), vehicle: Klucel (hydroxypropylcellulose) (HPC) 91 % of control | [3] 93 % of control | dose: 200.0 mg/kg/injection, schedule: Q01DX001 (ip), vehicle: Klucel (hydroxypropylcellulose) (HPC) 93 % of control | [5] 91 % of control | dose: 400.0 mg/kg/injection, schedule: Q01DX001 (ip), vehicle: Klucel (hydroxypropylcellulose) (HPC) 90 % of control | [7] 91 % of control

COc1ccccc1CN1CCCN(Cc2ccccc2OC)C1c1ccccn1
inactive: dose: 50.0 mg/kg/injection, schedule: Q01DX001 (ip), vehicle: saline 100 % of control | [13] 100 % of control | [14] 100 % of control

C[N+](C)(C)c1ccc(/C=C2\C=Cc3ccccc32)cc1
inactive: dose: 15.0 mg/kg/injection, schedule: Q01DX001 (ip), vehicle: carboxymethylcellulose (CMC) 108 % of control | [12] 102 % of control

c1cc2c(cc1CCCCCCCCCCc1ccc3c(c1)CCC3)CCC2
inactive: [13] 97 % of control | [14] 97 % of control | [15] 89 % of control

NC(=O)COc1ncc(Cl)cc1Cl
inactive: [1] 96 % of control | [16] 101 % of control | [17] 104 % of control

C=CCN1CCCC1=O
inactive: dose: 100.0 mg/kg/injection, schedule: Q04DX003 (ip), vehicle: saline 95 % of control | dose: 200.0 mg/kg/injection, schedule: Q04DX003 (ip), vehicle: saline 96 % of control | dose: 400.0 mg/kg/injection, schedule: Q04DX003 (ip), vehicle: saline 95 % of control

CC(C)(C)c1cc(O)c(O)c(C(C)(C)C)c1
inactive: dose: 25.0 mg/kg/injection, schedule: Q04DX003 (ip), vehicle: other 104 % of control | dose: 50.0 mg/kg/injection, schedule: Q04DX003 (ip), vehicle: other 104 % of control | dose: 100.0 mg/kg/injection, schedule: Q04DX003 (ip), vehicle: other 105 % of control

COc1ccc(OC(=S)N(C)C)cc1
inactive: [18] 94 % of control | [19] 88 % of control | [20] 102 % of control

Cc1cc2c(cc1C)-c1ccccc1C2=O
inactive: [9] 102 % of control | [10] 102 % of control | [11] 96 % of control

C=C(Br)CNS(=O)(=O)c1ccc(OC)cc1
inactive: [18] 92 % of control | [19] 101 % of control | [20] 94 % of control

CCOP1(=O)OCC(C)(C)CO1
inactive: [13] 98 % of control | [14] 96 % of control | [15] 102 % of control

O=C(O)COc1c(F)cc([N+](=O)[O-])cc1[N+](=O)[O-]
inactive: [1] 106 % of control | [16] 91 % of control | [17] 111 % of control

[Cl][Pt+2][Cl].[NH-]CC(=O)O.[NH-]CC(=O)O
inactive: dose: 9.7 mg/kg/injection, schedule: Q01DX009 (ip), vehicle: saline 86 % of control | dose: 19.4 mg/kg/injection, schedule: Q01DX001 (ip), vehicle: saline 100 % of control | dose: 19.4 mg/kg/injection, schedule: Q01DX009 (ip), vehicle: saline 89 % of control | dose: 38.8 mg/kg/injection, schedule: Q01DX001 (ip), vehicle: saline 105 % of control | dose: 38.8 mg/kg/injection, schedule: Q01DX009 (ip), vehicle: saline 95 % of control | dose: 77.5 mg/kg/injection, schedule: Q01DX001 (ip), vehicle: saline 109 % of control | dose: 77.5 mg/kg/injection, schedule: Q01DX009 (ip), vehicle: saline 100 % of control | dose: 155.0 mg/kg/injection, schedule: Q01DX001 (ip), vehicle: saline 98 % of control

CCCCCC(Oc1ccc(Cl)cc1C)C(=O)O (stereo not given)
inactive: [1] 107 % of control | [16] 107 % of control

CCCCCCCCC[n+]1ccc(C(N)=O)cc1
inactive: [18] 98 % of control
